Square brackets hold non-standard residues; d marks the D form. Peptide text beside a SMILES is read from it. Hyp = O=C(O)[C@@H]1C[C@@H](O)CN1; 2Thi = N[C@@H](Cc1cccs1)C(=O)O
Test system: vasodepressor response of exogenous bradykinin
Test: Inhibition of the vasodepressor response to exogenous bradykinin in awake rats
Type: in vivo, Wistar rats
Procedure: An adamantane acetic acid-modified bradykinin analog was synthesized by the solid-phase method described in Example 1. The analog designed by Stewart et al. was also synthesized and used as a control. The control (or model) and test analogs had the following structure: Model: D-Arg-Arg-Pro-Hyp-Gly-Thi-Ser-D-Phe-Thi-Arg Test: [formula] The antagonistic potency of the analogs was assessed by their ability to inhibit the vasodepressor response of exogenous bradykinin in awake rats.
Intact male Wistar rats (Charles River Breeding Laboratories, Wilmington, MA, U.S.A.) weighing 225-250 g were used and maintained on a regular Purina Rat Chow diet and tap water in a room at constant temperature (23 ± 1°C) with 12 hour dark/12 hour light cycles. One day before the experiment, the right carotid and the iliac artery in the rats were catheterized with polyethylene tubing (PE 50) under light ether anesthesia. A "Y" type connection was connected to the carotid artery catheter with two ends: one for injecting bradykinin and the other for infusing the bradykinin analogs. All of the catheters were externalized subcutaneously at the back of the neck. On the day of the experiment, the rats were maintained conscious and unrestrained in plastic cages. Arterial pressure (AP), mean arterial pressure (MAP) and heart rate (HR) were monitored through a Gould-Statham P23 ID pressure transducer (Gould, Cleveland, OH) connected to the iliac catheter and recorded on a Gould 2200S paper chart recorder. A half-hour period was allowed before the actual initiation of the experiment. […]
The effectiveness of each analog was tested by regression analysis of the data obtained in each rat, using a logarithmic transformation of the linear portion of each dose-response curve to calculate the ED₂₂ and ED₉₀ values. The comparison between the two analogs at the same dose was determined using the Students Nonpaired T Test. […]
The pA₂ is the most commonly used parameter to quantitatively express the potency of an antagonist. […]

How did the ED₂₂ (dose of analog infused (intracarotid) which inhibits 22% of the vasodepressor response to 250 ng of BK, conscious rats pretreated with enalapril 1 mg/kg, 7 rats, mean ± SE) turn out when `N=C(N)NCCC[C@@H](N)C(=O)N[C@@H](CCCNC(=N)N)C(=O)N1CCC[C@H]1C(=O)N1C[C@H](O)C[C@H]1C(=O)NCC(=O)N[C@@H](Cc1cccs1)C(=O)N[C@@H](CO)C(=O)N[C@H](Cc1ccccc1)C(=O)N[C@@H](Cc1cccs1)C(=O)N[C@@H](CCCNC(=N)N)C(=O)O` [Model Analog, D-Arg-Arg-Pro-Hyp-Gly-Thi-Ser-D-Phe-Thi-Arg] (H-[dR]RP[Hyp]G[2Thi]S[dF][2Thi]R-OH) was run?
The ED₂₂ was 1.49 ± 0.29 µg/min.

What about the ED₉₀ (dose of analog infused (intracarotid) which inhibits 90% of the vasodepressor response to 250 ng of BK, conscious rats pretreated with enalapril 1 mg/kg, 7 rats, mean ± SE) of the same molecule?
Its ED₉₀ is 142.50 ± 26.44 µg/min.

What about the “pA₂ (anti-vasodepressor potency)” value (negative logarithm of ED value (ED₂₂) divided by estimated volume of distribution (67ml/kg)) of the same molecule?
Its value is 7.17±0.11.
